Data from US20230057621A1 (priority 2019, published 2023).

Key:
Assay type in all cases: cell-based
pseudorabies virus [1] = test system: pseudorabies virus
EB virus = test system: EB virus
pseudorabies virus [2] = test system: pseudorabies virus; remark: listed apart in the source

CC(C)(C)C(=O)OCOP(=O)(COCCn1cnc2c(N)ncnc21)OCOC(=O)C(C)(C)C [adefovir dipivoxil]
EC50 for the inhibition against pseudorabies virus proliferation (pseudorabies virus [1]): reaches nanomolar level | inhibitory effect on pseudorabies virus replication and proliferation (pseudorabies virus [1]): can significantly inhibit the replication and proliferation of pseudorabies virus | inhibitory activity against EB virus replication (EB virus): no inhibitory activity against EB virus | inhibition of the release of pseudorabies virus from cells (pseudorabies virus [2]): can significantly inhibit the release of pseudorabies virus from cells
